For one test, the target named is IKZF1 Ikaros (Homo sapiens, UniProt Q13422+Q96SW2). Briefly: Human Regulatory T Cell Degradation Assay, IKZF1. Format: cell-based. Also on record: Cryopreserved healthy donor human peripheral blood mononuclear cells (PBMC); endogenous in cells; host or cells: human PBMC from healthy donors (CD8+ T cells by flow cytometry). As to conditions: human regulatory T cells, 20 hours; for Dmax: Regulatory T cell, 100% = complete degradation, read-out: IKZF1 Ikaros max % deg. observed; for DC50: concentration reducing protein level by 50% vs DMSO. As to the method: Cryopreserved human regulatory T cells were thawed in RPMI+10% FBS+20 ng/mL IL-2. After being spun at 1200 rpm for 5 mins, the cells were resuspended in RPMI+10% FBS+20 ng/mL and rested at 37° C. with 5% CO2 for 3 hours. The cells were then plated at 40,000 cells/well in 40 μL RPMI+10% FBS+20 ng/ml human IL-2 in a 384 well cell culture plate prior to using acoustic dispensing technology (ECHO 555) for adding compounds of interest. Cell cultures were incubated for 20 hours at 37° C. and 5% CO2. In order to facilitate analysis, cell cultures were spun down at 1200 rpm for 5 minutes and the supernatant was discarded using an EL406 plate washer. After washing three times with 70 μL PBS, cell pellets were resuspended in 50 μL of near IR viability staining solution (Life Technologies, Cat #L34975) and incubated for 30 minutes on ice protected from light. Cells were washed three times with 70 μL PBS+0.5% BSA using an EL406 plate washer. After shaking the plate to dislodge the cell pellet, cells were resuspended in 50 μL of Fixation Buffer (eBioScience FoxP3 buffer set 00-5523-00) for 60 minutes at room temperature. After centrifuging and discarding the supernatant, cells were permeabilized with 50 μL of permeabilization buffer (eBioScience FoxP3 buffer set 00-5523-00) for 10 minutes at room temperature. Following permeabilization, cells were spun down and the supernatant was replaced with 30 μL fluorescently labelled antibodies against the intracellular targets Helios (Helios-APC [BioLegend, Cat #137222, 1:50])]), Aiolos, and Ikaros 1× Permeabilization buffer and staining reactions were incubated for 1 bour at room temperature; protected from light. Subsequently, 30 μL of 1× Permeabilization buffer was added prior to centrifuging the cells and discarding the supernatant. Stained cells were resuspended in 30 μL of flow cytometry staining buffer (PBS+0.5% BSA) and analyzed using an Intellicyt Ique Plus flow cytometer.
IKZF1 Ikaros, sequence (Q13422 whole entry): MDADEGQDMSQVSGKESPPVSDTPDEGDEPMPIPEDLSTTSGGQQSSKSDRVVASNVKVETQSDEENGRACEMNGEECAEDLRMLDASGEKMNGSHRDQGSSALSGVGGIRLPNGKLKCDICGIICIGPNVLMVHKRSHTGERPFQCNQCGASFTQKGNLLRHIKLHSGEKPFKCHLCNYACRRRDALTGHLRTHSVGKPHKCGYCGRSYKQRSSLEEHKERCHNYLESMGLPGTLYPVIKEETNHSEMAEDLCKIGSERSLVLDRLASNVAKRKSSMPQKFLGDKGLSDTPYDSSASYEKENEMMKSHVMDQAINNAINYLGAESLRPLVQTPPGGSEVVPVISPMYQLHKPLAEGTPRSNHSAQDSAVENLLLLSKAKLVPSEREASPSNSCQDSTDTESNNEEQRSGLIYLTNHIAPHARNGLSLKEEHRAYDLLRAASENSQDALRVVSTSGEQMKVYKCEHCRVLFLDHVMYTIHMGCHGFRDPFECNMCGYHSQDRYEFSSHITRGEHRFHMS
IKZF1 Ikaros, sequence (Q96SW2 whole entry): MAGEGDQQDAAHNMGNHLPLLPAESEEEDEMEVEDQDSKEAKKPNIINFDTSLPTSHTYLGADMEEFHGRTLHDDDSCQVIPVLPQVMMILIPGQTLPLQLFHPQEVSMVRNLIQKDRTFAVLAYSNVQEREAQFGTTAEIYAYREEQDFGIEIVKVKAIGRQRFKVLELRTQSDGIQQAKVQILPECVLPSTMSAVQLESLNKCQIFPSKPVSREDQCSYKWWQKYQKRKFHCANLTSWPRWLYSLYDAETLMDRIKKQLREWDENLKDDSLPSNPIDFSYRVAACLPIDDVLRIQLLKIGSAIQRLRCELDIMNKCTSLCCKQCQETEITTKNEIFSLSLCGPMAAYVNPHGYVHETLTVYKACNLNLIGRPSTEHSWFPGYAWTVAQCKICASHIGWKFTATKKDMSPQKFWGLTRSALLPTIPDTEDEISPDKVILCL
IKZF1 Ikaros, sequence (Q16531 whole entry partner): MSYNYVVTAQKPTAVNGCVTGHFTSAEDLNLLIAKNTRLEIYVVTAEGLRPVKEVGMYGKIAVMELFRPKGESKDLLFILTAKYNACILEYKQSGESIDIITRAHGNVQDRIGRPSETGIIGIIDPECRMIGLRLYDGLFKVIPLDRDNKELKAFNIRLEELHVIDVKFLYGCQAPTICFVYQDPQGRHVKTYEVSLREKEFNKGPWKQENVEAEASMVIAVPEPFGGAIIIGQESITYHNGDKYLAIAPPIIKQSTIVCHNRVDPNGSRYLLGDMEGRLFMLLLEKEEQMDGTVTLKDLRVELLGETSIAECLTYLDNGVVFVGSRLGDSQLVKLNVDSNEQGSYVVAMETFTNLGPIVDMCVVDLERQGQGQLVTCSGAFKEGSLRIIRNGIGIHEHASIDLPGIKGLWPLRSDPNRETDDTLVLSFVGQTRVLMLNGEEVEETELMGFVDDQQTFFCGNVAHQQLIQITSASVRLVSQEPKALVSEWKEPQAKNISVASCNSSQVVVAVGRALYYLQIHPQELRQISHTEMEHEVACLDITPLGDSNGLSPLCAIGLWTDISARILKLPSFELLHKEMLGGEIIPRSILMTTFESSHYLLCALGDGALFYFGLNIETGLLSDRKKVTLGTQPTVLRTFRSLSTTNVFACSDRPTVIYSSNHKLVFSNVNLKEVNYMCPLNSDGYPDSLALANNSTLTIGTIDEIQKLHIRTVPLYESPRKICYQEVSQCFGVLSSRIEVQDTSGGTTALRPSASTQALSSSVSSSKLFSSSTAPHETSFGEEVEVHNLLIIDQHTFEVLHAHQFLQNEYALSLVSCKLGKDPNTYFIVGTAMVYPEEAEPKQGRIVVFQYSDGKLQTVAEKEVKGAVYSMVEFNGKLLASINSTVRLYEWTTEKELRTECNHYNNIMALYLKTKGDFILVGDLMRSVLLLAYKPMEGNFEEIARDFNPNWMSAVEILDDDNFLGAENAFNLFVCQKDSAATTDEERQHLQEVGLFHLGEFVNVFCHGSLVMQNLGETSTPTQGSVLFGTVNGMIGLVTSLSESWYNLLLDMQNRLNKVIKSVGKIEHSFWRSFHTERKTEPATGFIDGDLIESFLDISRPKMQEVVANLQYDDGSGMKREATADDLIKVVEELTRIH
Table B-1 lists the maximum observed degradation of the IKZF1 protein and IKZF2 protein as measured in the Human Regulatory T Cell Degradation assay. The results in Table B-1 were rounded to two digits. In the Human Regulatory T Cell Degradation assay, a value of 100% indicated no detectable protein remaining or complete degradation of the protein; and a value of 0% indicated no detectable degradation of the protein by the test compound.

For the next test, the target named is T1, IKZF4 Eos (Homo sapiens, UniProt Q96SW2+Q9H2S9).
T1 construct: endogenous in cells; host or cells: FACS-sorted human CD4+CD127lowCD25+ Treg cells from healthy leukopaks
T1 sequence (Q9H2S9 whole entry): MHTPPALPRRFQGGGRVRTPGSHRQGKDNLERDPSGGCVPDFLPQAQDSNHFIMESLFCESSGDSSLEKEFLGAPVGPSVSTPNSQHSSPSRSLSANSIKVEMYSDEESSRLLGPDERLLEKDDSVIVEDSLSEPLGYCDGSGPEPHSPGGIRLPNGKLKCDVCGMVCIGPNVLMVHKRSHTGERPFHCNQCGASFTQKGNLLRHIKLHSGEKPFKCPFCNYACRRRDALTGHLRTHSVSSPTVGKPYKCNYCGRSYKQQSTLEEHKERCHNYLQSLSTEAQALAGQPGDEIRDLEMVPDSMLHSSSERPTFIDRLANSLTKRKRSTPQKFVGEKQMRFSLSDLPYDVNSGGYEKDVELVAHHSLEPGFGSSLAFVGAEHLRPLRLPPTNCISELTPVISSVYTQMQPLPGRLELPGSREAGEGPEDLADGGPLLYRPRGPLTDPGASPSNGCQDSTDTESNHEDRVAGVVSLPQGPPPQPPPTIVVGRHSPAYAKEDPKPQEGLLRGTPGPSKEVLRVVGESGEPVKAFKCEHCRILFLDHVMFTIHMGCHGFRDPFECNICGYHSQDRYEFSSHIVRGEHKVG
T1 sequence (Q96SW2 whole entry): as the sequence (Q96SW2 whole entry) above
T1 sequence (Q16531 whole entry partner): as the sequence (Q16531 whole entry partner) above
The test can be described thus: Human Regulatory T Cell Reprogramming Assay, IKZF4. Format: cell-based. Particulars: 12-13 days; for Dmax: Regulatory T cell, human, read-out: IKZF4 Eos max % deg. observed; for Dmax / IKZF4 Eos max % deg. observed: human CD4+CD127lowCD25+ Treg cells, stimulated, 100% = complete degradation. As to the method:
Human CD4^+ T cells were isolated from fresh healthy leukopaks (Stemcell Technologies) using the RosetteSep Human CD4^+ T cell enrichment cocktail (Stemcell Technologies) and Ficoll density gradient centrifugation. Leukopaks were diluted with an equal volume of phosphate-buffered saline (PBS [Gibco]) supplemented with 2% fetal bovine serum (FBS, VWR Lifescience) and incubated with RosetteSep Human CD4^+ T cell enrichment cocktail for 20 minutes before layering on Ficoll-Paque Plus solution (GE Health Care). The cell-rich interface layer was harvested and washed twice with PBS supplemented with 2% FBS. Regulatory T cells were then isolated manually using the EasySep Human CD4^+CD127^lowCD25^+ Regulatory T cell isolation kit (Stemcell Technologies) according to the manufacturer's instructions. Cells were rested overnight in Roswell Park Memorial Institute (RPMI) 1640 media (Gibco) supplemented with 10% FBS, Pen/Strep (Gibco), MEM-NEAA (Gibco), and sodium pyruvate (Gibco) in a humidified incubator (37° C., 5% CO2). Cells were then stained for CD4 (clone: RPA-T4, Biolegend), CD25 (clone: 2A3, BD Biosciences), and CD127 (clone: hIL-7R-M21, BD Biosciences). CD4^+CD127^lowCD25^+ cells were sorted on a BD FACS Aria Fusion sorter to a purity of 95% or greater. Sorted cells were immediately used or cryopreserved for downstream assays.
Fresh or cryopreserved FACS-sorted CD4^+CD127^lowCD25^+ Treg cells were cultured at 25,000-50,000 cells/well of 96-well round bottom plates in RPMI 1640 media (Gibco) supplemented with 10% FBS, Pen/Strep (Gibco), MEM-NEAA (Gibco), and sodium pyruvate (Gibco). Cells were stimulated with Treg Xpander beads (Thermo Fisher) at cells-to-beads ratio of 1:4 in the presence of 500 U/mL recombinant human IL-2 (Proleukin). Compounds were added at titrated doses and cells were incubated at 37°C., 5% CO2 for 12-13 days. Recombinant human IL-2 and compound were replenished every 2-3 days during the entire culture duration. On day 12 or 13, cells were restimulated with phorbol 12-myristate 13-acetate (PMA) and ionomycin in the presence of the protein transport inhibitors brefeldin A and monensin (eBioscience Cell Stimulation Cocktail plus protein transport inhibitors, 500×, Catalog number 00-4975-93) before proceeding with flow cytometry staining and analysis.
For flow cytometry staining, cells were washed twice with flow cytometry staining buffer (Thermo Fisher) and incubated in Human Tru-stain Fc block (Biolegend) for 10 minutes before adding eFluor780 viability dye (Thermo Fisher) and surface marker antibody cocktail for 30 minutes at 4° C. Cells were then fixed and permeabilized by incubation with FoxP3 transcription factor staining buffer (Thermo Fisher) for 30 minutes at 4° C. as per the kit manufacturer's instructions. Cells were washed twice with the Perm/Wash buffer supplied in the kit as per the manufacturer's instructions and incubated overnight at 4° C. with an intracellular antibody cocktail comprised of antibodies specific for the transcription factors shown in Table C. Cells were washed twice with Perm/Wash buffer and resuspended in flow cytometry staining buffer (Thermo Fisher) prior to acquisition. Sample acquisition and analysis was performed using a BD LSRFortessa (BD Biosciences) flow cytometer. Single stain controls for each fluorochrome were prepared using UltraComp eBead Compensation Beads (Thermo Fisher). Data were analyzed using FlowJo version 10 and GraphPad Prism Software.
Table C-1 lists the maximum observed degradation of the IKZF2 protein and IKZF4 protein as measured in the Human Regulatory T Cell Reprogramming assay. The results in Table C-1 were rounded to two digits. In the Human Regulatory T Cell Reprogramming assay, a value of 100% indicated no detectable protein remaining or complete degradation of the protein; and a value of 0% indicated no detectable degradation of the protein by the test compound.

Where only a bound is given, the exact number is not on record here.

Take `O=C1CCC(n2cc(-c3ccc(Br)cc3F)oc2=O)C(=O)N1` (centres unmarked) [Comparative Compound B, 3-(5-(4-bromo-2-fluorophenyl)-2-oxooxazol-3(2H)-yl)piperidine-2,6-dione]: the Dmax on IKZF1 Ikaros amounted to 47%. Besides, at IKZF4 Eos, the Dmax was no more than 11% and the “IKZF4 Eos max % deg. observed” value was found to be 11%.

As to `Cc1cc(-c2ccc(-c3cn(C4CCC(=O)NC4=O)c(=O)o3)c(F)c2)nc(N)c1OC(F)F` (centres unmarked) [Example 1, 3-(5-(4-(6-Amino-5-(difluoromethoxy)-4-methylpyridin-2-yl)-2-fluorophenyl)-2-oxooxazol-3(2H)-yl)piperidine-2,6-dione], on IKZF1 Ikaros, the Dmax is 46% and the DC50 is greater than 10 µM. Besides, on IKZF4 Eos, the Dmax was in the range of 68 to 71% and the “IKZF4 Eos max % deg. observed” value was 68-71%. At IKZF4 Eos (human Treg cells, concentration reducing protein level by 50% vs DMSO), this compound gave a DC50 of 0.00045 µM.

On to `O=C1CCC(n2cc(-c3ccccc3)oc2=O)C(=O)N1` (centres unmarked) [Comparative Compound A, 3-(2-oxo-5-phenyloxazol-3(2H)-yl)piperidine-2,6-dione], for which, on IKZF1 Ikaros, the Dmax stood at 24% and the DC50 was greater than 10 µM. Also, the “IKZF4 Eos max % deg. observed” value at IKZF4 Eos was 0%.

(Values after patent US20260327216A1, “SUBSTITUTED OXAZOLONE COMPOUND FOR DECREASING LEVELS OF IKZF I-4 PROTEINS” (BRISTOL-MYERS SQUIBB COMPANY, priority 2023, published 2026).)
